# Reference: PubChem BioAssay (NCI)
#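 Here, GI50 denotes the concentration required for 50% inhibition of growth. TGI: total growth inhibition.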
# Experiments:
# Test in all cases: inhibition of tumour cell growth, NCI panel, 384-well format
# [1] = test system: LOX IMVI melanoma
# [2] = test system: SN12C renal
# [3] = test system: RXF 393 renal
# [4] = test system: HS 578T breast
# [5] = test system: MDA-MB-468 breast
# [6] = test system: HOP-62 NSCLC
# [7] = test system: MOLT-4 leukemia
# [8] = test system: A549 NSCLC
# [9] = test system: MALME-3M melanoma
# [10] = test system: SK-MEL-5 melanoma
# [11] = test system: M14 melanoma
# [12] = test system: SK-MEL-28 melanoma
# [13] = test system: U251 glioblastoma
# [14] = test system: KM12 colon
# [15] = test system: OVCAR-3 ovarian
# [16] = test system: SNB-19 CNS
# [17] = test system: A498 renal
# [18] = test system: COLO 205 colon
# [19] = test system: MDA-MB-231 breast
# [20] = test system: SR leukemia
# [21] = test system: HOP-92 NSCLC
# [22] = test system: SF-295 CNS
# [23] = test system: UACC-62 melanoma
# [24] = test system: SF-539 CNS
# [25] = test system: NCI-H522 lung
# [26] = test system: BT-549 breast
# [27] = test system: T-47D breast
# [28] = test system: NCI-H322M lung
# [29] = test system: PC-3 prostate
# [30] = test system: HCT-15 colon
# [31] = test system: IGROV1 ovarian
# [32] = test system: UACC-257 melanoma
# [33] = test system: SNB-75 CNS
# [34] = test system: OVCAR-4 ovarian
# [35] = test system: CAKI-1 renal
# [36] = test system: RPMI-8226 leukemia
# [37] = test system: NCI-H226 lung
# [38] = test system: NCI/ADR-RES ovarian
# [39] = test system: ACHN renal
# [40] = test system: DU-145 prostate
# [41] = test system: OVCAR-8 ovarian
# [42] = test system: NCI-H460 NSCLC
# [43] = test system: SK-OV-3 ovarian
# [44] = test system: NCI-H23 lung
# [45] = test system: OVCAR-5 ovarian
# [46] = test system: HT29 colon
# [47] = test system: HCC-2998 colon
# [48] = test system: MDA-MB-435 melanoma
# [49] = test system: SF-268 CNS
# [50] = test system: MCF7 breast
# [51] = test system: HL-60(TB) leukemia
# [52] = test system: TK-10 renal
# [53] = test system: HCT-116 colon
# [54] = test system: EKVX NSCLC
smiles,measurement,setting,value
CC(=O)O/N=C1/C(c2c(O)[nH]c3cc(Br)ccc23)=Nc2ccccc21,GI50,[1],1110 nM
same,TGI,[1],2310 nM
same,GI50,[2],53.8 nM
same,TGI,[2],710 nM
same,GI50,[3],1010 nM
same,TGI,[3],2220 nM
same,GI50,[4],215 nM
same,TGI,[4],860 nM
same,GI50,[5],1320 nM
same,TGI,[5],2610 nM
same,GI50,[6],1070 nM
same,TGI,[6],2260 nM
same,GI50,[7],1900 nM
same,TGI,[7],3320 nM
same,GI50,[8],1460 nM
same,TGI,[8],2840 nM
same,GI50,[9],1990 nM
same,TGI,[9],4240 nM
same,GI50,[10],312 nM
same,TGI,[10],1660 nM
same,GI50,[11],1610 nM
same,TGI,[11],2970 nM
same,GI50,[12],1670 nM
same,TGI,[12],3070 nM
same,GI50,[13],1080 nM
same,TGI,[13],2280 nM
same,GI50,[14],532 nM
same,TGI,[14],2010 nM
same,GI50,[15],186 nM
same,TGI,[15],946 nM
same,GI50,[16],1470 nM
same,TGI,[16],2870 nM
same,GI50,[17],182 nM
same,TGI,[17],496 nM
same,GI50,[18],1270 nM
same,TGI,[18],2530 nM
same,GI50,[19],1300 nM
same,TGI,[19],2650 nM
same,GI50,[20],1140 nM
same,TGI,[20],2350 nM
same,GI50,[21],1250 nM
same,TGI,[21],2650 nM
same,GI50,[22],1000 nM
same,TGI,[22],2320 nM
same,GI50,[23],636 nM
same,TGI,[23],1890 nM
same,GI50,[24],505 nM
same,TGI,[24],1690 nM
same,GI50,[25],1480 nM
same,TGI,[25],2810 nM
same,GI50,[26],574 nM
same,TGI,[26],1910 nM
same,GI50,[27],1760 nM
same,TGI,[27],3230 nM
same,GI50,[28],727 nM
same,TGI,[28],2010 nM
same,GI50,[29],462 nM
same,TGI,[29],1780 nM
same,GI50,[30],686 nM
same,TGI,[30],1950 nM
same,GI50,[31],157 nM
same,TGI,[31],1350 nM
same,GI50,[32],1720 nM
same,TGI,[32],3100 nM
same,GI50,[33],554 nM
same,TGI,[33],2040 nM
same,GI50,[34],1250 nM
same,TGI,[34],2540 nM
same,GI50,[35],675 nM
same,TGI,[35],1970 nM
same,GI50,[36],685 nM
same,TGI,[36],1860 nM
same,GI50,[37],257 nM
same,TGI,[37],1080 nM
same,GI50,[38],1240 nM
same,TGI,[38],2520 nM
same,GI50,[39],472 nM
same,TGI,[39],1660 nM
same,GI50,[40],1050 nM
same,TGI,[40],2290 nM
same,GI50,[41],1100 nM
same,TGI,[41],2310 nM
same,GI50,[42],798 nM
same,TGI,[42],2070 nM
same,GI50,[43],275 nM
same,TGI,[43],1330 nM
same,GI50,[44],1470 nM
same,TGI,[44],2860 nM
same,GI50,[45],1980 nM
same,TGI,[45],3400 nM
same,GI50,[46],1460 nM
same,TGI,[46],2800 nM
same,GI50,[47],540 nM
same,TGI,[47],1980 nM
same,GI50,[48],1340 nM
same,TGI,[48],2630 nM
same,GI50,[49],1050 nM
same,TGI,[49],2250 nM
same,GI50,[50],582 nM
same,TGI,[50],2370 nM
same,GI50,[51],495 nM
same,TGI,[51],1150 nM
same,GI50,[52],356 nM
same,TGI,[52],1590 nM
same,GI50,[53],1030 nM
same,TGI,[53],2230 nM
same,GI50,[54],505 nM
same,TGI,[54],2030 nM
